Data published in the supplement of paper PMC10307832.

What follows are cell lines tested with C=CCn1c(=O)c2cnc(Nc3ccc(N4CCN(C)CC4)cc3)nc2n1-c1cccc(C(C)(C)O)n1 [Adavosertib] + O=C(CCCCCCC(=O)Nc1ccccc1)NO [Vorinostat] (partner 1 µM) (assay: relative viability (nuclei count vs DMSO), 5 days (fraction); higher = more cells survive). Conditions: first compound 0.3162 µM.
Summary of the method: (§1)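 Each reported value is a median over duplicate plates. It expresses relative viability: treated-well nuclei count divided by vehicle-well nuclei count. Lung cancer cell lines in 1536-well plates were dosed by pin tool a day after seeding, alone with one drug or with a fixed anchor-drug dose plus five library-drug doses (not always all listed) in √10 steps, and nuclei were counted after 5 days.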

Cell Line	relative viability
NCI-H1993	1.05
NCI-H2009	0.676
NCI-H2023	0.16
NCI-H2085	0.649
NCI-H2087	0.826
NCI-H2126	0.789
NCI-H2170	0.676
NCI-H2228	0.294
NCI-H2342	0.864
NCI-H2347	0.533
NCI-H2405	0.895
NCI-H3122	0.992
PC-3 [JPC-3]	0.753
PC-14	0.183
RERF-LC-KJ	0.654
SK-LU-1	0.453
SK-MES-1	0.348

What follows are cell lines tested with C=CCn1c(=O)c2cnc(Nc3ccc(N4CCN(C)CC4)cc3)nc2n1-c1cccc(C(C)(C)O)n1 [Adavosertib] + CCNC(=O)c1noc(-c2cc(C(C)C)c(O)cc2O)c1-c1ccc(CN2CCOCC2)cc1 [Luminespib] (partner 0.01 µM) in the same assay as above. Conditions: first compound 0.01 µM.
Summary of the method: as §1

Cell Line	relative viability
NCI-H460	0.0322
NCI-H520	0.227
NCI-H596	0.911
NCI-H647	0.128
NCI-H650	0.76
NCI-H661	0.898
NCI-H727	0.299
NCI-H838	0.293
NCI-H1355	0.671
NCI-H1395	0.836
NCI-H1437	1.07
NCI-H1650	0.2
NCI-H1651	0.812
NCI-H1666	0.977
NCI-H1734	0.234
NCI-H1755	0.417
NCI-H1793	0.148
NCI-H1915	0.912
NCI-H1944	0.696

Cell Line	relative viability
NCI-H1975	0.16
NCI-H1993	0.912
NCI-H2009	1.01
NCI-H2023	0.8
NCI-H2085	0.61
NCI-H2087	0.208
NCI-H2126	0.831
NCI-H2170	0.592
NCI-H2228	0.186
NCI-H2342	0.636
NCI-H2347	0.467
NCI-H2405	0.556
NCI-H3122	0.0987
PC-3 [JPC-3]	0.665
PC-14	0.151
RERF-LC-KJ	1.32
SK-LU-1	0.19
SK-MES-1	0.604

Same assay, conditions: first compound 0.03162 µM

Cell Line	relative viability
NCI-H460	0.0312
NCI-H520	0.214
NCI-H522	1.04
NCI-H596	1.2
NCI-H647	0.179
NCI-H650	0.842
NCI-H661	0.924
NCI-H727	0.363
NCI-H838	0.302
NCI-H1355	0.644
NCI-H1395	0.741
NCI-H1437	1.2
NCI-H1650	0.207
NCI-H1651	1.06
NCI-H1666	0.946
NCI-H1734	0.241
NCI-H1755	0.616
NCI-H1793	0.21
NCI-H1915	0.729

Cell Line	relative viability
NCI-H1944	0.715
NCI-H1975	0.17
NCI-H1993	0.904
NCI-H2009	1.07
NCI-H2023	0.771
NCI-H2085	0.411
NCI-H2087	0.187
NCI-H2126	0.832
NCI-H2170	0.747
NCI-H2228	0.159
NCI-H2342	0.676
NCI-H2347	0.382
NCI-H2405	0.805
NCI-H3122	0.0823
PC-3 [JPC-3]	0.746
PC-14	0.165
RERF-LC-KJ	1.33
SK-LU-1	0.201
SK-MES-1	0.723

Same assay, conditions: first compound 0.1 µM

Cell Line	relative viability
NCI-H460	0.0317
NCI-H520	0.243
NCI-H522	1.24
NCI-H596	0.958
NCI-H647	0.151
NCI-H650	0.841
NCI-H661	1.06
NCI-H727	0.301
NCI-H838	0.313
NCI-H1355	0.617
NCI-H1395	0.734
NCI-H1437	1.17
NCI-H1650	0.213
NCI-H1651	0.733
NCI-H1666	0.994
NCI-H1734	0.184
NCI-H1755	0.342
NCI-H1793	0.179
NCI-H1915	0.752

Cell Line	relative viability
NCI-H1944	0.655
NCI-H1975	0.188
NCI-H1993	0.836
NCI-H2009	1.06
NCI-H2023	0.441
NCI-H2085	0.46
NCI-H2087	0.194
NCI-H2126	0.897
NCI-H2170	0.626
NCI-H2228	0.132
NCI-H2342	0.788
NCI-H2347	0.723
NCI-H2405	0.773
NCI-H3122	0.12
PC-3 [JPC-3]	0.657
PC-14	0.219
RERF-LC-KJ	1.29
SK-LU-1	0.249
SK-MES-1	0.559

Same assay, conditions: first compound 0.3162 µM

Cell Line	relative viability
NCI-H460	0.0275
NCI-H520	0.213
NCI-H522	1.2
NCI-H596	0.76
NCI-H647	0.136
NCI-H650	0.673
NCI-H661	0.557
NCI-H727	0.24
NCI-H838	0.284
NCI-H1355	0.631
NCI-H1395	0.424
NCI-H1437	1.07
NCI-H1650	0.145
NCI-H1651	0.678
NCI-H1666	1.02
NCI-H1734	0.191
NCI-H1755	0.531
NCI-H1793	0.156
NCI-H1915	0.617

Cell Line	relative viability
NCI-H1944	0.575
NCI-H1975	0.176
NCI-H1993	1.06
NCI-H2009	0.888
NCI-H2023	0.31
NCI-H2085	0.35
NCI-H2087	0.195
NCI-H2126	0.93
NCI-H2170	0.479
NCI-H2228	0.134
NCI-H2342	0.784
NCI-H2347	0.292
NCI-H2405	0.69
NCI-H3122	0.0969
PC-3 [JPC-3]	0.724
PC-14	0.141
RERF-LC-KJ	1.16
SK-LU-1	0.169
SK-MES-1	0.236

Each cell line was assayed with C=CCn1c(=O)c2cnc(Nc3ccc(N4CCN(C)CC4)cc3)nc2n1-c1cccc(C(C)(C)O)n1 [Adavosertib] + Cc1nc(Nc2ncc(C(=O)Nc3c(C)cccc3Cl)s2)cc(N2CCN(CCO)CC2)n1 [Dasatinib] (partner 0.075 µM) in the same assay as above. Conditions: first compound 0.01 µM.
Summary of the method: as §1

Cell Line	relative viability
NCI-H460	0.477
NCI-H520	0.194
NCI-H522	0.83
NCI-H596	0.53
NCI-H647	0.2
NCI-H650	0.37
NCI-H661	0.864
NCI-H727	0.316
NCI-H838	0.291
NCI-H1355	0.673
NCI-H1395	0.427
NCI-H1437	0.404
NCI-H1650	0.306
NCI-H1651	0.479
NCI-H1666	0.754
NCI-H1734	0.53
NCI-H1755	0.406
NCI-H1793	0.392
NCI-H1915	0.325

Cell Line	relative viability
NCI-H1944	0.205
NCI-H1975	0.383
NCI-H1993	0.63
NCI-H2009	0.318
NCI-H2023	0.584
NCI-H2085	0.257
NCI-H2087	0.901
NCI-H2126	0.602
NCI-H2170	0.522
NCI-H2228	0.536
NCI-H2342	0.3
NCI-H2347	0.378
NCI-H2405	0.198
NCI-H3122	0.816
PC-3 [JPC-3]	0.994
PC-14	0.281
RERF-LC-KJ	0.799
SK-LU-1	0.249
SK-MES-1	0.334

Same assay, conditions: first compound 0.03162 µM

Cell Line	relative viability
NCI-H460	0.519
NCI-H520	0.181
NCI-H522	0.749
NCI-H596	0.656
NCI-H647	0.21
NCI-H650	0.494
NCI-H661	0.846
NCI-H727	0.478
NCI-H838	0.326
NCI-H1355	0.643
NCI-H1395	0.407
NCI-H1437	0.323
NCI-H1650	0.293
NCI-H1651	0.409
NCI-H1666	0.821
NCI-H1734	0.469
NCI-H1755	0.424
NCI-H1793	0.308
NCI-H1915	0.315

Cell Line	relative viability
NCI-H1944	0.201
NCI-H1975	0.3
NCI-H1993	0.503
NCI-H2009	0.294
NCI-H2023	0.583
NCI-H2085	0.266
NCI-H2087	0.786
NCI-H2126	0.619
NCI-H2170	0.48
NCI-H2228	0.492
NCI-H2342	0.345
NCI-H2347	0.304
NCI-H2405	0.217
NCI-H3122	0.849
PC-3 [JPC-3]	0.937
PC-14	0.236
RERF-LC-KJ	0.774
SK-LU-1	0.158
SK-MES-1	0.392

Same assay, conditions: first compound 0.1 µM

Cell Line	relative viability
NCI-H460	0.429
NCI-H520	0.183
NCI-H522	0.944
NCI-H596	0.66
NCI-H647	0.259
NCI-H650	0.5
NCI-H661	0.75
NCI-H727	0.338
NCI-H838	0.31
NCI-H1355	0.696
NCI-H1395	0.416
NCI-H1437	0.375
NCI-H1650	0.305
NCI-H1651	0.396
NCI-H1666	0.854
NCI-H1734	0.464
NCI-H1755	0.447
NCI-H1793	0.439
NCI-H1915	0.352

Cell Line	relative viability
NCI-H1944	0.218
NCI-H1975	0.268
NCI-H1993	0.719
NCI-H2009	0.297
NCI-H2023	0.471
NCI-H2085	0.229
NCI-H2087	0.893
NCI-H2126	0.564
NCI-H2170	0.608
NCI-H2228	0.475
NCI-H2342	0.338
NCI-H2347	0.267
NCI-H2405	0.183
NCI-H3122	0.922
PC-3 [JPC-3]	0.933
PC-14	0.23
RERF-LC-KJ	0.975
SK-LU-1	0.148
SK-MES-1	0.27

Same assay, conditions: first compound 0.3162 µM

Cell Line	relative viability
NCI-H460	0.359
NCI-H520	0.217
NCI-H522	0.739
NCI-H596	0.541
NCI-H647	0.107
NCI-H650	0.465
NCI-H661	0.347
NCI-H727	0.301
NCI-H838	0.285
NCI-H1355	0.569
NCI-H1395	0.439
NCI-H1437	0.43
NCI-H1650	0.216
NCI-H1651	0.282
NCI-H1666	0.733
NCI-H1734	0.318
NCI-H1755	0.384
NCI-H1793	0.36
NCI-H1915	0.293

Cell Line	relative viability
NCI-H1944	0.199
NCI-H1975	0.232
NCI-H1993	0.618
NCI-H2009	0.178
NCI-H2023	0.226
NCI-H2085	0.279
NCI-H2087	0.845
NCI-H2126	0.561
NCI-H2170	0.389
NCI-H2228	0.265
NCI-H2342	0.289
NCI-H2347	0.258
NCI-H2405	0.206
NCI-H3122	0.893
PC-3 [JPC-3]	1.05
PC-14	0.057
RERF-LC-KJ	0.715
SK-LU-1	0.136
SK-MES-1	0.193
